Source: publication PMC3024946, “Hydroxyproline-containing collagen analogs trigger the release and activation of collagen-sequestered proMMP-2 by competition with prodomain-derived peptide P33-42” (Fibrogenesis & Tissue Repair, 2011)

Tests used:
ProMMP-9 = test: Solid-phase binding of [125I]-proMMP-9 to immobilized collagens/peptides (microwells); design: species or system human; conditions: ProMMP-9, 2 ng/well; coated wells; 4°C, 2 h; residual radioactivity; mean ± SD, at least five experiments in triplicate
Description: (§1) Human recombinant proMMPs and in vitro activated MMPs were obtained from Invitek and were labeled with the [^125I]-Bolton-Hunter reagent according to the manufacturer's instructions (PerkinElmer, Rodgau, Germany) before the buffer was exchanged for phosphate-buffered saline (PBS) with 0.05% (vol/vol) Tween 20 by gel filtration as described previously. Specific radioactivity for [^125I]-MMPs was 3-9 × 10^4 cpm/ng. Precipitation with 10% (wt/vol) trichloroacetic acid and 200 μg of BSA recovered 96% to 100% of protein-bound radioactivity. Aliquots of labeled MMPs were frozen and stored at -80°C. The activity and integrity were checked by substrate gel zymography using SDS-PAGE and autoradiography with overnight exposure to Biomax MS film (Kodak, Stuttgart, Germany) (Figure 2A).
(§2) Native human CI, CIII and CVI were purified from skin tissue and placenta. The CI single chains α1(I) and α2(I) were obtained and modified as described previously. To prepare defined fragments, 2 mg of α1(I) were dissolved in 1 ml of 70% (vol/vol) formic acid at room temperature, the tubes were flushed with nitrogen for 10 min, and then 2 mg of CB were added. After incubation for 4 h at 37°C, free CB was neutralized and the samples were lyophilized. The peptides CB3, CB6, CB7 and CB8 were separated from the reaction mixture by gel filtration followed by ion-exchange chromatography. The resulting peptides were characterized by amino acid analysis and SDS-PAGE [45, 46]. The CB peptides had the following melting temperatures: CB3, 23.9°C; CB6, 26.7°C; CB7, 28.1°C; and CB8, 28.0°C [31].
(§3) The following collagen analogs and control peptides were synthesized as described previously: (GPO)10, H-Gly-Cys-Hyp-(Gly-Pro-Hyp)10-Gly-Cys-Hyp-Gly-NH2; (GPP)10, H-Gly-Cys-Pro-(Gly-Pro-Pro)10-Gly-Cys-Pro-Gly-NH2; and GAP, H-Gly-Ala-Cys-(Gly-Ala-Pro)5-Gly-Phe-Hyp-Gly-Glu-Arg-(Gly-Ala-Pro)5-NH2. Peptides (POG)10, (PPG)10 and (POG)5 were purchased from Peptide International (Louisville, KY, USA). Spontaneous triple-helix assembly was approved by polarimetry over a 10-cm path length at 1°C/min in 10 mM phosphate buffer, pH 7.4. At 5 mg/ml, midpoints of melting curves occurred at 82.3 ± 1.4°C for (GPO)10 and at 45.8 ± 0.8°C for (GPP)10. […] Graphs were calculated from the primary data using a custom fitting program written by D.A. Slatter (Department of Biochemistry, University of Cambridge, Cambridge, UK [48]) to model different possible transitions. All collagens, CI derivatives and peptides were stored in stock solutions of 2 mg/ml in 150 mM acetic acid at -20°C.
(§4) ProMMP-2 and proMMP-9 or actMMP-2 and actMMP-9 were bound to nitrocellulose and polystyrene-immobilized native collagens, CI chains, CB peptides or structural analogs. Serial dilutions of collagens or CI derivatives in 150 mM acetic acid were dotted at 3 × 3 μl to a nitrocellulose membrane with high protein-binding capacity (GE Healthcare, Munich, Germany). Air-dried membranes were blocked with PBS and 0.3% (vol/vol) Tween 20 overnight at 4°C, washed three times, and incubated with 1 ng/ml [^125I]-pro- and actMMP-2 and pro- and actMMP-9 in PBS and 0.3% (vol/vol) Tween 20 for 2 h at room temperature. Membranes were washed again and air-dried, and bound MMP was monitored by autoradiography. In parallel, polystyrene microtiter plates (Dynex, Chantilly, VA, USA) were coated with collagen proteins and peptides. Here 2 μg/well or 200 ng/well proteins and peptides or BSA as control were immobilized in 100 μl of 50 mM ammonium bicarbonate buffer, pH 9.6, by overnight incubation at 4°C. Immobilization efficacies were 20% to 45% of total proteins. Wells were washed three times with PBS, and nonspecific binding sites were blocked with PBS and 0.05% (vol/vol) Tween 20 for 1 h at room temperature. All incubation steps were performed with 2 ng of [^125I]-MMPs at 4°C for 2 h. […]

ProMMP-2 [1] = test: Solid-phase binding of [125I]-proMMP-2 to immobilized collagens/peptides (microwells); design: species or system human; conditions: ProMMP-2, 2 ng/well; coated wells; 4°C, 2 h; residual radioactivity; mean ± SD, at least five experiments in triplicate
Description: as §1, §2, §3, §4

ActMMP-2 [2] = test: Solid-phase binding of [125I]-actMMP-2 to immobilized collagens/peptides (microwells); design: species or system human; conditions: ActMMP-2, 2 ng/well; coated wells; 4°C, 2 h; residual radioactivity; mean ± SD, at least five experiments in triplicate
Description: as §1, §2, §3, §4

ActMMP-9 = test: Solid-phase binding of [125I]-actMMP-9 to immobilized collagens/peptides (microwells); design: species or system human; conditions: ActMMP-9, 2 ng/well; coated wells; 4°C, 2 h; residual radioactivity; mean ± SD, at least five experiments in triplicate
Description: as §1, §2, §3, §4

[3] = soluble human placenta-isolated triple-helical portion of CI; ref [30]; cited from earlier work
Text: We tested α1(I) chains, which rapidly refold into triple-helical conformation in neutral buffers at room temperature, as well as CB-peptides of the α1(I) chain, where the length of the triple helix affects their thermal stability. Here the strength of binding of proMMP-2 and proMMP-9 to CB peptides directly correlated to the thermal stability of its tri ... || Native human CI, CIII and CVI were purified from skin tissue and placenta. The CI single chains α1(I) and α2(I) were obtained and modified as described previously. To prepare defined fragments, 2 mg of α1(I) were dissolved in 1 ml of 70% (vol/vol) formic acid at room temperature, the tubes were flushed with nitrogen for 10 min, and then 2 mg of CB were added. After incubation for 4 h at 37°C, free CB was neutralized and the samples were lyophilized. The peptides CB3, CB6, CB7 and CB8 were separated from the reaction mixture by gel filtration followed by ion-exchange chromatography. The ...

ProMMP-2 [4] = test: Fluorogenic short-substrate assay, activation of proMMP-2; assay type: biochemical, human; conditions: proMMP-2; CI-coated wells
Description: (§5) Enzymatic activities of MMPs were studied spectrofluorimetrically by cleavage of fluorogenic substrates in MMP activity buffer within 2 to 5 h. For gelatinases 800 nM MCA-Pro-Leu-Gly-Leu-Dnp-Dap-Ala-Arg-NH2 (λex/em 328/393 nm; Bachem, Bubendorf, Switzerland) or 10 μg/ml DQ-gelatine were used, according to the method described by Knight et al. for collagenases 800 nM MCA-Pro-Cha-Gly-Nva-His-Ala-Dpa-NH2 (λex/em 280/360 nm; Anaspec, San José, CA, USA). In some experiments, proMMP-2 was fully activated in the presence of 1 mM APMA prior to the kinetic measurements. A quantity of 50 ng pro- or actMMP-2 alone or mixed with 10- to 150-fold molar excesses of (GPO)10, GAP, P33-42 or mixtures of (GPO)10 and P33-42, were added to CI-coated, BSA-coated (1 μg/well both) or uncoated wells containing 150 μl of the respective substrate solution. The peptide P33-42 was purchased from the Institute of Biochemistry (Humboldt-University, Berlin, Germany). The influence of CI on MMP-2 enzymatic activity against the quenched fluorescent substrate could be excluded. Background subtraction (measurement without MMPs) was applied to all curves. All experiments were performed with a fluorescence microplate reader (Molecular Devices, Sunnyvale, CA, USA) and black 96-well microtiter plates with a clear bottom (Greiner bio-one, Frickenhausen, Germany).

ActMMP-2 [5] = test: Fluorogenic short-substrate assay, activity of actMMP-2; assay type: biochemical, human; conditions: CI-coated wells
Description: as §5

Substance: CI: native human collagen type I purified from skin tissue and placenta
- Binding of [125I]-MMPs (ProMMP-9): 30.9 ± 3.1 % of maximum control
- Binding of [125I]-MMPs (ProMMP-2 [1]): 24.0 ± 5.6 % of maximum control
- Binding of [125I]-MMPs (ActMMP-2 [2]): 11.1 ± 1.8 % of maximum control
- Binding of [125I]-MMPs (ActMMP-9): 3.1 ± 0.5 % of maximum control
- melting temperature [3]: 33.8 °C
- effect of CI coating on activity (ProMMP-2 [4]): strong reduction in activity
- effect of CI coating on activity (ActMMP-2 [5]): strong reduction in activity
